# Measured values: paper PMC7155171, “Probing the Open Global Health Chemical Diversity Library for Multistage-Active Starting Points for Next-Generation Antimalarials” (ACS Infectious Diseases, 2020)
# Like-named read-outs stand apart in the source and are kept apart here.
# How the values were obtained:
# [1] = test system: P. falciparum Dd2 (PfLuc) line expressing firefly luciferase, asexual blood stage; assay: microbe, parasite or virus in culture; format: cell-based, Plasmodium falciparum; conditions: Plasmodium falciparum
# P. falciparum Dd2 = assay: SYBR green I asexual blood stage proliferation assay (96 h); format: cell-based, Plasmodium falciparum; conditions: for IC50 / Emax: Plasmodium falciparum
# [2] = DD2, read-out: CDD P. falciparum Luciferase ABS 11-pt Reconfirmation Dose Response (48hr): IC50 (μM), 11-pt dose response, 48hr
# [3] = DD2, 8-pt dose response, 96hr, read-out: CDD P. falciparum Luciferase ABS 8-pt Reconfirmation Dose Response (96hr): IC50
# [4] = DD2, 8-pt dose response, 96hr, read-out: CDD P. falciparum Luciferase ABS 8-pt Reconfirmation Dose Response (96hr): Maximum inhibition (%)
# [5] = DD2, 11-pt dose response, 48hr, read-out: CDD P. falciparum Luciferase ABS 11-pt Reconfirmation Dose Response (48hr): Maximum inhibition (%)
# [6] = DD2, 11-pt dose response, 96hr, read-out: CDD P. falciparum Luciferase ABS 11-pt Reconfirmation Dose Response (96hr): IC50
# [7] = DD2, 11-pt dose response, 96hr, read-out: CDD P. falciparum Luciferase ABS 11-pt Reconfirmation Dose Response (96hr): Maximum inhibition (%)
# [8] = DD2, Sybr Green I, 11-pt dose response, 96hr, read-out: CDD P. falciparum Sybr Green I ABS 11-pt Reconfirmation Dose Response (96hr): IC50
# [9] = DD2, Sybr Green I, 11-pt dose response, 96hr, read-out: CDD P. falciparum Sybr Green I ABS 11-pt Reconfirmation Dose Response (96hr): Maximum inhibition (%)
# [10] = DD2, read-out: P. falciparum Luciferase ABS 11-pt Reconfirmation Dose Response (48hr): IC50, 11-pt dose response, 48hr
# [11] = DD2, 8-pt dose response, 96hr, read-out: P. falciparum Luciferase ABS 8-pt Reconfirmation Dose Response (96hr): IC50
# [12] = DD2, 8-pt dose response, 96hr, read-out: P. falciparum Luciferase ABS 8-pt Reconfirmation Dose Response (96hr): Maximum inhibition (%)
# [13] = DD2, 11-pt dose response, 96hr, read-out: P. falciparum Luciferase ABS 11-pt Reconfirmation Dose Response (96hr): IC50
# [14] = DD2, 11-pt dose response, 96hr, read-out: P. falciparum Luciferase ABS 11-pt Reconfirmation Dose Response (96hr): Maximum inhibition (%)
# [15] = DD2, 11-pt dose response, 96hr, read-out: P. falciparum Sybr Green I ABS 11-pt Reconfirmation Dose Response (96hr): IC50
# [16] = DD2, 11-pt dose response, 96hr, read-out: P. falciparum Sybr Green I ABS 11-pt Reconfirmation Dose Response (96hr): Maximum inhibition (%)
# [17] = DD2, 11-pt dose response, 48hr, read-out: P. falciparum Luciferase ABS 11-pt Reconfirmation Dose Response (48hr): Maximum inhibition (%)
compound,measurement,setting,value
CC[C@H]1CN2CC[C@H]1C[C@@H]2CNCc1ccc(OC(F)(F)F)cc1 [DDD01025218],IC50,[1]; [2],2.91 µM
same,IC50,[1]; [3],1.07 µM
same,Emax,[1]; [4],92.1%
same,Emax,[1]; [5],93%
same,IC50,[1]; [6],> 1.39 µM
same,Emax,[1]; [7],100%
same,IC50,P. falciparum Dd2; [8],4160 nM
same,Emax,P. falciparum Dd2; [9],89.4%
COc1ccc2[nH]c(C[C@@H]3C[C@@H](C(C)C)[C@H](CN(C)C)C=C3C)nc2c1 [DDD01025345],IC50,[1]; [2],12 µM
same,IC50,[1]; [3],0.59 µM
same,Emax,[1]; [4],88.6%
same,Emax,[1]; [5],66.8%
same,IC50,[1]; [6],1.53 µM
same,Emax,[1]; [7],91.5%
same,IC50,P. falciparum Dd2; [8],3630 nM
same,Emax,P. falciparum Dd2; [9],67.2%
CCC1CN(CC(=O)NCCN2CCCCC2)c2ccccc2S1 (centres unmarked) [DDD01025850],IC50,[1]; [2],5.56 µM
same,IC50,[1]; [3],1.1 µM
same,Emax,[1]; [4],87.2%
same,Emax,[1]; [5],55.4%
same,IC50,[1]; [6],2.56 µM
same,Emax,[1]; [7],83.2%
same,IC50,P. falciparum Dd2; [8],7990 nM
same,Emax,P. falciparum Dd2; [9],74.7%
CN1CC[C@H](N(Cc2ccccc2)Cc2ccccc2)C[C@H](O)C1 [DDD01026217],IC50,[1]; [2],> 4.16 µM
same,IC50,[1]; [3],0.91 µM
same,Emax,[1]; [4],80.7%
same,Emax,[1]; [5],69.3%
same,IC50,[1]; [6],> 4.16 µM
same,Emax,[1]; [7],93.7%
same,IC50,P. falciparum Dd2; [8],7310 nM
same,Emax,P. falciparum Dd2; [9],73.4%
Cc1ccc(C(CCNCCCN(C)C)C2CCOC(C)(C)C2)cc1 (centres unmarked) [DDD01026662],IC50,[1]; [2],7.59 µM
same,IC50,[1]; [3],0.76 µM
same,Emax,[1]; [4],96.2%
same,Emax,[1]; [5],95.3%
same,IC50,[1]; [6],5.89 µM
same,Emax,[1]; [7],98.8%
same,IC50,P. falciparum Dd2; [8],1570 nM
same,Emax,P. falciparum Dd2; [9],97.5%
"CN(C)CCCNCCC(Cc1ccccc1)C1CCOC(C)(C)C1 (centres unmarked) [DDD01026664, CN(C)CCCNCCC(Cc1ccccc1)C1CCOC(C)(C)C1]",IC50,"[1]; DD2, read-out: CDD P. falciparum Luc 11pt dose response (96hr, n=2): IC50 (μM), 96hr, 11-point, n=2",0.11 µM
same,IC50,"[1]; DD2, read-out: CDD P. falciparum Luciferase 11pt dose response (48hr, n=2): IC50 (μM), 48hr, 11-point, n=2",0.405 µM
same,Emax,"[1]; DD2, 48hr, 11-point, read-out: CDD P. falciparum Luciferase ABS 11-pt Reconfirmation Dose Response (48hr): Maximum inhibition (%)",98.1%
same,Emax,"[1]; DD2, 96hr, 11-point, read-out: CDD P. falciparum Luciferase ABS 11-pt Reconfirmation Dose Response (96hr): Maximum inhibition (%)",101%
same,CDD P. falciparum Sybr Green I ABS Dd2 Dose Response: Maximum measured (%),"P. falciparum Dd2; Dd2, 96 h",98.8%
same,IC50,"P. falciparum Dd2; DD2, 96 h, read-out: CDD P. falciparum Sybr Green I ABS Dd2 Dose Response: IC50",251 nM
Cc1ncc(CNCCO)c2cc(C(=O)c3ccc(Br)cc3)oc12 [DDD01027290],IC50,[1]; [10],> 12.5 µM
same,IC50,[1]; [11],1.35 µM
same,Emax,[1]; [12],90.8%
same,IC50,[1]; [13],1.63 µM
same,Emax,[1]; [14],98.3%
same,IC50,P. falciparum Dd2; [15],3320 nM
same,Emax,P. falciparum Dd2; [16],63.7%
O=S(=O)(NCC(c1ccsc1)N1CCCCCC1)c1cccs1 (centres unmarked) [DDD01027501],IC50,[1]; [10],> 12.5 µM
same,IC50,[1]; [11],1.94 µM
same,Emax,[1]; [12],83.7%
same,Emax,[1]; [17],44%
same,IC50,[1]; [13],8.75 µM
same,IC50,P. falciparum Dd2; [15],7790 nM
same,Emax,P. falciparum Dd2; [16],69.9%
Cc1cc(C)c(N(CC(O)CNCc2ccccc2)S(C)(=O)=O)c(C)c1 (centres unmarked) [DDD01027603],IC50,[1]; [2],2.17 µM
same,IC50,[1]; [3],0.51 µM
same,Emax,[1]; [4],90.1%
same,Emax,[1]; [5],75%
same,IC50,[1]; [6],0.829 µM
same,Emax,[1]; [7],90.9%
same,IC50,P. falciparum Dd2; [8],4910 nM
same,Emax,P. falciparum Dd2; [9],81.7%
Cc1cc(CN2CCC(CNS(=O)(=O)c3ccc(Br)s3)CC2)c(C)o1 [DDD01027665],IC50,[1]; [2],3.89 µM
same,IC50,[1]; [3],0.63 µM
same,Emax,[1]; [4],89.4%
same,Emax,[1]; [5],82%
same,IC50,[1]; [6],1.08 µM
same,Emax,[1]; [7],95%
same,IC50,P. falciparum Dd2; [8],> 12500 nM
same,Emax,P. falciparum Dd2; [9],32.7%
COc1ccc(CCC(=O)NCCN2CCC(c3cccs3)CC2)cc1 [DDD01028015],IC50,[1]; [2],11.4 µM
same,IC50,[1]; [3],0.95 µM
same,Emax,[1]; [4],85.7%
same,Emax,[1]; [5],69.6%
same,IC50,[1]; [6],2.24 µM
same,Emax,[1]; [7],86.6%
same,IC50,P. falciparum Dd2; [8],4170 nM
same,Emax,P. falciparum Dd2; [9],71.9%
O=C(NCCc1ccccc1)NCCN1CCC(c2cccs2)CC1 [DDD01028018],IC50,[1]; [10],5.18 µM
same,IC50,[1]; [11],1.18 µM
same,Emax,[1]; [12],87.7%
same,Emax,[1]; [17],64%
same,IC50,[1]; [13],1.42 µM
same,Emax,[1]; [14],87.1%
same,IC50,P. falciparum Dd2; [15],> 4160 nM
same,Emax,P. falciparum Dd2; [16],69.6%
COc1ccc(NC(=O)Nc2cnc(N3CCN(C)CC3)nc2)cc1Cl [DDD01028129],IC50,[1]; [10],> 12.5 µM
same,IC50,[1]; [11],1.39 µM
same,Emax,[1]; [12],94.1%
same,Emax,[1]; [17],14.8%
same,IC50,[1]; [13],4.41 µM
same,Emax,[1]; [14],57.8%
same,IC50,P. falciparum Dd2; [15],> 12500 nM
same,Emax,P. falciparum Dd2; [16],38.2%
c1ccc(C[C@H]2CN(C3CCOCC3)CC[C@H]2OCC2CC2)cc1 [DDD01028772],IC50,[1]; [2],> 12.5 µM
same,IC50,[1]; [3],0.69 µM
same,Emax,[1]; [4],87%
same,Emax,[1]; [5],70.2%
same,IC50,[1]; [6],1.04 µM
same,Emax,[1]; [7],91.3%
same,IC50,P. falciparum Dd2; [8],7170 nM
same,Emax,P. falciparum Dd2; [9],69.9%
CN1CCC2(CCCN(c3nccc(C(F)(F)F)n3)C2)CC1 [DDD01028783],IC50,[1]; [2],> 12.5 µM
same,IC50,[1]; [3],0.75 µM
same,Emax,[1]; [4],87.2%
same,Emax,[1]; [5],60.6%
same,IC50,[1]; [6],3.57 µM
same,Emax,[1]; [7],84.9%
same,IC50,P. falciparum Dd2; [8],8820 nM
same,Emax,P. falciparum Dd2; [9],74%
CC(C)N1CCC2(CCCN(c3nccc(C(F)(F)F)n3)C2)CC1 [DDD01028790],IC50,[1]; [2],3.12 µM
same,IC50,[1]; [3],0.61 µM
same,Emax,[1]; [4],89.3%
same,Emax,[1]; [5],69%
same,IC50,[1]; [6],1.33 µM
same,Emax,[1]; [7],91.1%
same,IC50,P. falciparum Dd2; [8],9750 nM
same,Emax,P. falciparum Dd2; [9],76.4%
Fc1cccc(CN2C[C@@H]3CN(Cc4ccccn4)C[C@@H]3C2)c1 [DDD01029091],IC50,[1]; [2],1.16 µM
same,IC50,[1]; [3],0.62 µM
same,Emax,[1]; [4],95.3%
same,Emax,[1]; [5],94%
same,IC50,[1]; [6],0.354 µM
same,Emax,[1]; [7],100%
same,IC50,P. falciparum Dd2; [8],2340 nM
NCC1[C@H]2CN(Cc3cccc(Cl)c3)C[C@@H]12 (some centres unmarked) [DDD01029240],IC50,[1]; [2],2.68 µM
same,IC50,[1]; [3],0.55 µM
same,Emax,[1]; [4],93.8%
same,Emax,[1]; [5],85%
same,IC50,[1]; [6],1.2 µM
same,Emax,[1]; [7],99%
same,IC50,P. falciparum Dd2; [8],1890 nM
same,Emax,P. falciparum Dd2; [9],90.7%
c1ccc(CN2CCCC3(CCN(Cc4cccs4)C3)C2)nc1 (centres unmarked) [DDD01029520],IC50,[1]; [10],6.38 µM
same,IC50,[1]; [11],1.97 µM
same,Emax,[1]; [12],83.5%
same,Emax,[1]; [17],51.8%
same,IC50,[1]; [13],2.96 µM
same,Emax,[1]; [14],86.9%
same,IC50,P. falciparum Dd2; [15],> 4160 nM
same,Emax,P. falciparum Dd2; [16],58%
c1ccc(N2CCCC3(CCN(Cc4ccsc4)C3)C2)nc1 (centres unmarked) [DDD01029521],IC50,[1]; [2],3.75 µM
same,IC50,[1]; [3],1.02 µM
same,Emax,[1]; [4],83.9%
same,Emax,[1]; [5],64.3%
same,IC50,[1]; [6],2.51 µM
same,Emax,[1]; [7],86.9%
same,IC50,P. falciparum Dd2; [8],1880 nM
same,Emax,P. falciparum Dd2; [9],66.8%
